Here are results for two molecules from PMC8658998, “Identification of Novel Antistaphylococcal Hit Compounds Targeting Sortase A” (Molecules, 2021).

The target in the assay is T1, sortase A (Staphylococcus aureus, UniProt Q2FV99).
T1 construct: gene srtA
Kind of assay: SensoLyte […] Sortase A FRET substrate cleavage assay (5-FAM/QXL). In kind it is biochemical.

A word on the IC50: it is the point on the concentration scale where inhibition reaches its midpoint.

Where two headings read alike, the source gives them in different places.

T1 sequence (Q2FV99 whole entry): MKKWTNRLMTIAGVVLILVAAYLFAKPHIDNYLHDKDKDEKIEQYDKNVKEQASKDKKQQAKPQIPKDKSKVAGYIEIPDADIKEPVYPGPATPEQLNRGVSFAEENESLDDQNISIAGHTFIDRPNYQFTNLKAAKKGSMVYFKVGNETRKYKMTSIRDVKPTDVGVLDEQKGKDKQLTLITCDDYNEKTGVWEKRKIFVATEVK

On to `CCN(CC)CCCNc1cc([N+](=O)[O-])ccc1-c1ncc2ccccc2n1` [compound 1, N,N-diethyl-N′-(5-nitro-2-(quinazolin-2-yl)phenyl)propane-1,3-diamine], for which the IC50 (read-out: IC50) amounted to 160 µM.

`c1ccc2c(Nc3ccc4[nH]cnc4c3)c3ccccc3nc2c1` [compound 2, acridin-9-yl-(1H-benzoimidazol-5-yl)-amine]: the midpoint of inhibition, the IC50, lay at 207 µM.
